From patent US4455303A, “Renin inhibitors” (priority 1983, dated 1984)
pIC50, pKi: −log10 of the molar value. Where two headings read alike, the source gives them in different places. Where a SMILES comes first, the peptide text is derived from it. Where no end group is shown, it is not given here. [ ]: non-standard residue; d: D form. Phe(4-Cl) = N[C@@H](Cc1ccc(Cl)cc1)C(=O)O

Legend:
[1] = target: T1, human renin (Homo sapiens, UniProt P00797); experiment: IC50 on human renin, angiotensin I generation from tetradecapeptide renin substrate (assay of Burton et al); format: biochemical
T1 sequence (P00797 67-406): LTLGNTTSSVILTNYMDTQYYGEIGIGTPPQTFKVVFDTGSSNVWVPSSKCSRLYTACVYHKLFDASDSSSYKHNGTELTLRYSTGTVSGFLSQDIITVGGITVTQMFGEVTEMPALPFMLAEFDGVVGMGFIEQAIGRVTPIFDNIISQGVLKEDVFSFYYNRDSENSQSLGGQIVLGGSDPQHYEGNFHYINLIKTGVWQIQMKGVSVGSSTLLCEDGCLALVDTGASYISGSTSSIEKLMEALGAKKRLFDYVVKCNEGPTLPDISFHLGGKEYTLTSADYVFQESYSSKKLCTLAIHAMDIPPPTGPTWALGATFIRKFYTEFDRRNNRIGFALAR
Experimental: The assay for testing the inhibitory activities of the pentapeptides on renin is described in Burton, J. et al, Biochem. 14: 3892-3898 (1975), which is herein incorporated by reference.
The 11 pentapeptides shown in Table I were synthesized by standard solid phase peptide synthesis as shown in the description following the table and the IC50 (concentration at which inhibition is 50%) value on human renin in the assay of Burton et al, supra, was determined for each sample.
Angiotensin I standards and tetradecapeptide renin substrate (TDP) were obtained from Peninsula Laboratories Inc. (San Mateo, CA). Renin was a gift of Dr. E. Slater (1980). Angiotensin I concentration was determined by radioimmunoassay using a commercially available kit (Clinical Assays, Cambridge, MA).
Standard renin solution (V3) is diluted 4-fold with M Tris-lysozyme buffer (pH 7.40). Concentration of […] of the renin inhibitor being tested are also prepared in the Tris-lysozyme buffer. For the uninhibited reaction Tris-lysozyme buffer alone is used in place of the inhibitor solution.
Reaction mixtures containing TDP solution ([…], 25 µM), renin solution (50 liters, 20-fold diluted), and the inhibitor (50 liters, 50-1000 M) were incubated for 1 hr at 37°, diluted 1000-fold and assayed for angiotensin I.
Inhibition is determined by the following equation:
% Inh.=((ng ANG Iunhib -ng ANG Iinh)/ng ANG
IC50 is determined by plotting Percent inhibition (% Inh.) against the inhibitor concentration and interpolating to determine the molarity of inhibitor at which 50% inhibition is observed.
Cross-reactivity of TDP with ANG I is less than 0.05%.

[2] = test system: renin dependent hypertension; experiment: Acute renovascular hypertension model, inflatable aortic cuff, monkey; format: in vivo, Macaca fascicularis; details: one monkey, cuff inflated
Experimental: The animal model of acute renovascular hypertension is prepared by surgically implanting an inflatable cuff about the aorta above the left kidney of an adult Macaca fascicularis as descirbed by Cody, R. J. et al (1980) Hypertension. The right kidney is subsequently removed and catheters implanted in the right iliac vein and artery. Two arterial catheters lead from above and below the constricting cuff to strain gauges permit blood pressure to be measured both above and below the cuff.
Inflation of the cuff creates a measurable amount of ischemia to the remaining kidney and renin dependent hypertension develops in about one hour.
The results of the injection of (RI-78) on the blood pressure and plasma renin level of one monkey are summarized below. The converting enzyme inhibitor teprotide (Ondetti et al, 19) is used as a control.

[3] = test system: isolated gut section; experiment: In vitro transport of radiolabeled pentapeptide across isolated gut section; format: in vitro ADME; details: radiolabeled pentapeptide added to one side of an isolated gut section, label measured on the other side
From the text: Of particular interest is the fact that the peptides of the present invention are short chained, and can potentially be used as orally active peptides.

[4] = target: renin; details: pH 7.4; Poulsen et al 1973; read-out: inhibitory constant (KI); cited from earlier work
[5] = IC50 (concentration at which inhibition is 50%), Table I, human renin
[6] = IC50, TDP substrate, pH 7.40, 1 hr at 37°
[7] = Table I, human renin, read-out: IC50 (concentration at which inhibition is 50%)
[8] = time 145 min, injection of teprotide (control)
[9] = printed with the characterisation data of each peptide, TDP substrate, pH 7.40, 1 hr at 37°, read-out: IC50

Compound: CC(C)[C@H](NC(=O)[C@H](Cc1ccccc1)NC(=O)[C@@H](N)Cc1ccc(Cl)cc1)C(=O)N[C@@H](Cc1ccc(O)cc1)C(=O)N[C@@H](CCCCN)C(N)=O [RI-78, 4-chlorophenylalanylphenylalanylvalyltyrosyllysine-amide] (H-[Phe(4-Cl)]FVYK-NH2)
- pIC50 [1, 5]: 4.15
- pIC50 [1, 6]: 4.15
- Blood Pressure ([2]; time 0 min, injection 0.5 mg RI-78): 113 mm Hg
- Blood Pressure ([2]; time 10 min, injection 2.5 mg RI-78): 65 mm Hg
- Blood Pressure ([2]; time 25 min (15 min after 2.5 mg RI-78), no further injection): 111 mm Hg
- Plasma Renin Activity ([2]; time 30 min (20 min after 2.5 mg RI-78), no further injection): 28.5

Compound: CC(C)[C@H](NC(=O)[C@H](Cc1ccc(Cl)cc1)NC(=O)[C@@H](N)Cc1ccccc1)C(=O)N[C@@H](Cc1ccc(O)cc1)C(=O)N[C@@H](CCCCN)C(N)=O [RI-80, Phenylalanyl-4-chlorophenylalanylvalyltyrosyllysineamide] (H-F[Phe(4-Cl)]VYK-NH2)
- pIC50 [1, 7]: 4.40
- transport across the gut [3]: transported across the gut

Compound: CC(C)[C@H](NC(=O)[C@H](Cc1ccccc1)NC(=O)[C@@H](N)Cc1ccccc1)C(=O)N[C@@H](Cc1ccc(Cl)cc1)C(=O)N[C@@H](CCCCN)C(N)=O [RI-85, Phenylalanylphenylalanylvalyl-4-chlorophenylalanyllysine-amide] (H-FFV[Phe(4-Cl)]K-NH2)
- pIC50 [1, 5]: ~4.00
- pIC50 [1, 6]: 3.76

Compound: COc1ccc(C[C@H](NC(=O)[C@@H](N)Cc2ccccc2)C(=O)N[C@H](C(=O)N[C@@H](Cc2ccc(O)cc2)C(=O)N[C@@H](CCCCN)C(N)=O)C(C)C)cc1 [RI-102, Phenylalanyl-O-methyltyrosylvalyltyrosyllysine-amide] (H-FY(Me)VYK-NH2)
- pIC50 [1, 5]: 3.72

Compound: CC[C@H](C)[C@H](NC(=O)[C@H](CCC(N)=O)NC(=O)[C@@H]1CCCN1C(=O)[C@H](CCCNC(=N)N)NC(=O)[C@@H]1CCCN1C(=O)[C@H](Cc1c[nH]c2ccccc12)NC(=O)[C@@H]1CCC(=O)N1)C(=O)N1CCC[C@H]1C(=O)N1CCC[C@H]1C(=O)O [Teprotide, teprotide, reference compound]
- Blood Pressure [2, 8]: 76 mm Hg
- Plasma Renin Activity [2, 8]: ≥ 37

Compound: FFTYK-NH2 [RI-83, Phenylalanylphenylalanylthreonyltyrosyllysine-amide]
- pIC50 [1, 5]: 2.43

Compound: FFVFK-NH2 [RI-84, Phenylalanylphenylalanylvalylphenylalanyllysine-amide]
- pIC50 [1, 5]: 3.12

Compound: FFVYK-NH2 [RI-77, Phenylalanylphenylalanylvalyltyrosyllysine-amide]
- pIC50 [1, 5]: 4.10

Compound: FYVYK-NH2 [RI-81, Phenylalanyltyrosylvalyltyrosyllysine-amide]
- pIC50 [1, 5]: 4.10
- pIC50 [1, 6]: 3.82

Compound: Leu-Leu-Val-TyrH2
- pKi [4]: 2.99

Compound: Phenylalanylphenylalanyl-threo-3-chloro-L-2-amino-butyryltyrosyllysine amide [RI-82]
- pIC50 [1, 7]: 2.90
- pIC50 [1, 9]: 2.61

Compound: YFVYK-NH2 [RI-79, Tyrosylphenylalanylvalyltyrosyllysine-amide]
- pIC50 [1, 7]: 3.85
- pIC50 [1, 9]: 4.30
